According to US20150038707A1, “PROCESS FOR MAKING CGRP RECEPTOR ANTAGONISTS” (Merck Sharp & Dohme Corp., priority 2012, published 2015):

How the values were obtained:
An. Vestitipennis = assay: Repellency field studies in experimental huts, Belize (Example 12); assay type: in vivo; conditions: for Reduction (%) vs control hut / Number Collected in Entrance: 2.5 nmole; for Number Collected in Entrance: treated hut
Description: Compound 1405 was tested in field studies in Belize at a concentration of 2.5 nmole/cm^2. The field studies involved use of huts that were equipped with entrance and exit traps. The hut design and collection procedures correspond to those disclosed by Suwonkerd et al. in “The Effect of Host Type on Movement Patters of Aedes aegypti (Diptera: Culicidae) into and out of Experimental Huts in Thailand,” J. Vector. Ecol., vol. 31 (2), p. 311-318 (2006) which is incorporated herein by reference for all relevant and consistent purposes. The huts were equipped with entrance and/or exit traps at entry and exit points (e.g., windows and doors). The huts were randomized and designated as control (no treatment) or treated (with some intervention being evaluated). The relative numbers of mosquitoes entering or leaving the treated vs. control huts was determined. An. Vestitipennis, An. Albimanus, An. Punctimacula, An. Crucians and a large number of other culicines were collected in the traps. An. Vestitipennis comprised the majority of what was collected.

mosquitoes (Ae. aegypti) = assay: Compound residual life: spatial repellency (Example 11); assay type: in vivo; conditions: 12 week test period
Description: The four compounds of formula I described in Example 2 were tested for spatial repellency (directed movement away from the chemical source without the insect making physical contact with the treated surface) at low doses on female Aedes aegypti (Thailand strain) mosquitoes. The spatial repellency response was determined by use of the spatial repellency assay disclosed by Grieco et al. in “A New Classification System for the Actions of IRS Chemicals Traditionally Used for Malaria Control” in Plos One, Issue 8 (2007) (available at www.plosone.org) which is incorporated herein by reference for all relevant and consistent purposes. The assay used was a cylindrical assembly that included a treatment chamber at one end and a control chamber at the other end. The treatment chamber included a netting strip (nylon organdy) that was treated with the insecticide of interest at the relevant dose. The treatment chamber and control chamber were connected by a clear cylinder and were separated from the clear cylinder by butterfly valves. Twenty (20) mosquitoes were introduced into the clear central chamber and the butterfly valves were opened after 30 seconds. After 10 minutes, the valves were closed and the number of mosquitoes in each chamber was counted. […]

Row | SMILES | effectiveness as a repellent in field huts (FIGS. 6-9) (An. Vestitipennis; 2.5 nmole/cm^2, four day study) | Reduction (%) vs control hut (An. Vestitipennis; Day 1) [%] | Number Collected in Entrance (An. Vestitipennis; Day 1) | Reduction (%) vs control hut (An. Vestitipennis; Day 2) [%] | Number Collected in Entrance (An. Vestitipennis; Day 2) | Reduction (%) vs control hut (An. Vestitipennis; Day 3) [%] | Number Collected in Entrance (An. Vestitipennis; Day 3) | Reduction (%) vs control hut (An. Vestitipennis; Day 4) [%] | Number Collected in Entrance (An. Vestitipennis; Day 4) | Reduction (%) vs control hut (An. Vestitipennis; Total of days 1-4) [%] | Number Collected in Entrance (An. Vestitipennis; Total of days 1-4) | residual spatial repellent activity (in words) (mosquitoes (Ae. aegypti))
1 | CC1(C)C(C=C(Cl)C(F)(F)F)C1C(=O)OCc1ccc(F)c(C(F)(F)F)c1F (stereo not drawn) [Compound 1405] | extremely effective as a repellent | 97 | 37 | 84 | 99 | 66 | 173 | 65 | 232 | 82 | 541 | 
2 | CC1(C)C(C=C(Cl)Cl)C1C(=O)OCc1ccc(F)c(C(F)(F)F)c1F (stereo not drawn) [Compound 1406] |  |  |  |  |  |  |  |  |  |  |  | appeared to be the more residual of the two compounds tested
